Consider 15 compounds from US9227930B2, “Aminoindane derivatives, pharmaceutical compositions containing them, and their use in therapy” (ABBOTT LABORATORIES, priority 2010, dated 2016).

Counter-ions that a name gives are not always drawn. A value given as a limit tells only on which side of the number the result lay.

The assay has as its target human GlyT1c transporter (Homo sapiens (Human), UniProt P48067). Description: Radioligand binding assay using recombinant CHO cell membranes expressing human GlyT1. The conditions noted are these: read-out: radioligand binding Kiapp. Here is the method: 2. Radioligand binding assays using recombinant CHO cell membranes expressing human GlyT1:
Radioligand binding to human GlyT1c transporter-expressing membranes was determined as described in Mezler et al., Molecular Pharmacology 74:1705-1715, 2008.

human GlyT1c transporter, sequence (P48067 whole entry): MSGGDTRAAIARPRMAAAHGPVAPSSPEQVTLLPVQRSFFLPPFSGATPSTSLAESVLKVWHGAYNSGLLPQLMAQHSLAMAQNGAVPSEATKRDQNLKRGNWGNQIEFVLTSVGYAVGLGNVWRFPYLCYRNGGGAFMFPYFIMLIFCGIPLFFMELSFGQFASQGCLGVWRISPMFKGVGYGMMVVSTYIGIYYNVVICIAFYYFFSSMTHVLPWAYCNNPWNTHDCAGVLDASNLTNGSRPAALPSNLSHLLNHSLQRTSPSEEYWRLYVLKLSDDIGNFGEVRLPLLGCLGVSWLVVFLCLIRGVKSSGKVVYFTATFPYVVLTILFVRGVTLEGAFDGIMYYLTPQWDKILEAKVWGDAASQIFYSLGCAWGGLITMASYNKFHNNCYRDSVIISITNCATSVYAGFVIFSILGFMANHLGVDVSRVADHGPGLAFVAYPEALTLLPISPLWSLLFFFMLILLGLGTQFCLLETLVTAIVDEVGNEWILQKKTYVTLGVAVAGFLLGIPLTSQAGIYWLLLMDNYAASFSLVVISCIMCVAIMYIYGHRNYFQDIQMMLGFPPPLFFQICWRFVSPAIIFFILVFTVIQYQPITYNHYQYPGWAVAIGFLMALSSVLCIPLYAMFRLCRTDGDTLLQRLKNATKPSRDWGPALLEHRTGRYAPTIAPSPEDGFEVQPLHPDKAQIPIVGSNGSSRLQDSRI

For the compound `CN[C@@H]1Cc2cc(F)c(OCCNS(=O)(=O)c3cn(C)cn3)cc2[C@@H]1Cc1ccccc1` (relative stereo) [Example 200, cis-N-(2-(3-Benzyl-6-fluoro-2-(methylamino)-2,3-dihydro-1H-inden-5-yloxy)ethyl)-1-methyl-1H-imidazole-4-sulfonamide], the Ki is no more than 100 nM.

`Cn1cnc(S(=O)(=O)NCCOc2cc3c(cc2F)C[C@@H](N2CCC2)[C@H]3Cc2ccccc2)c1` (relative stereo) [Example 201, cis-N-(2-{[2-(Azetidin-1-yl)-3-benzyl-6-fluoro-2,3-dihydro-1H-inden-5-yl]oxy}ethyl)-1-methyl-1H-imidazole-4-sulfonamide]: the Ki was no more than 100 nM.

Consider `Cn1cnc(S(=O)(=O)NCCOc2cc3c(cc2F)C[C@@H](N2CC(C)(O)C2)[C@H]3Cc2ccccc2)c1` (relative stereo) [Example 206, cis-N-(2-{[3-Benzyl-6-fluoro-2-(3-hydroxy-3-methylazetidin-1-yl)-2,3-dihydro-1H-inden-5-yl]oxy}ethyl)-1-methyl-1H-imidazole-4-sulfonamide], for which the Ki was no more than 100 nM.

On to `CN[C@@H]1Cc2cc(F)c(CNS(=O)(=O)c3cn(C)cn3)cc2[C@@H]1Cc1ccccc1` (relative stereo) [Example 209a, cis-N-{[3-Benzyl-6-fluoro-2-(methylamino)-2,3-dihydro-1H-inden-5-yl]methyl}-1-methyl-1H-imidazole-4-sulfonamide], for which the Ki is no more than 10 nM.

On to `CN[C@@H]1Cc2cc(F)c(CNS(=O)(=O)c3cn(C)cn3)cc2[C@H]1Cc1ccccc1` (relative stereo) [Example 209b, trans-N-{[3-benzyl-6-fluoro-2-(methylamino)-2,3-dihydro-1H-inden-5-yl]methyl}-1-methyl-1H-imidazole-4-sulfonamide], for which the Ki was no more than 10 nM.

As to `CCOC(=O)NC1Cc2ccc(OCCNS(=O)(=O)c3cn(C)cn3)cc2C1Cc1ccccc1` (stereo not drawn) [Example 195, Ethyl 1-benzyl-6-(2-(1-methyl-1H-imidazole-4-sulfonamido)ethoxy)-2,3-dihydro-1H-inden-2-ylcarbamate], the Ki was no more than 1000 nM.

For `CCOC(=O)NC1Cc2ccc(OCCNS(=O)(=O)c3nccn3C)cc2C1Cc1ccccc1` (stereo not drawn) [Example 196, Ethyl 1-benzyl-6-(2-(1-methyl-1H-imidazole-2-sulfonamido)ethoxy)-2,3-dihydro-1H-inden-2-ylcarbamate], the Ki was no more than 10000 nM.

For `Cn1cnc(S(=O)(=O)NCCOc2ccc3c(c2)C(Cc2ccccc2)C(N)C3)c1` (stereo not drawn) [Example 197, N-{2-[(2-Amino-3-benzyl-2,3-dihydro-1H-inden-5-yl)oxy]ethyl}-1-methyl-1H-imidazole-4-sulfonamide hydrochloride], the Ki was no more than 100 nM.

`Cn1ccnc1S(=O)(=O)NCCOc1ccc2c(c1)C(Cc1ccccc1)C(N)C2` (stereo not drawn) [Example 198, N-(2-(2-Amino-3-benzyl-2,3-dihydro-1H-inden-5-yloxy)ethyl)-1-methyl-1H-imidazole-2-sulfonamide hydrochloride]: the Ki was no more than 10000 nM.

Regarding `CNC1Cc2ccc(OCCNS(=O)(=O)c3cn(C)cn3)cc2C1Cc1ccccc1` (stereo not drawn) [Example 199, N-(2-(3-Benzyl-2-(methylamino)-2,3-dihydro-1H-inden-5-yloxy)ethyl)-1-methyl-1H-imidazole-4-sulfonamide], the Ki is no more than 10 nM.

Consider `Cn1cnc(S(=O)(=O)NCCOc2ccc3c(c2)C(Cc2ccccc2)C(N2CCC2)C3)c1` (stereo not drawn) [Example 202, N-(2-(2-(Azetidin-1-yl)-3-benzyl-2,3-dihydro-1H-inden-5-yloxy)ethyl)-1-methyl-1H-imidazole-4-sulfonamide], for which the Ki is no more than 10 nM.

For the compound `CC1CN(C2Cc3cc(F)c(OCCNS(=O)(=O)c4cn(C)cn4)cc3C2Cc2ccccc2)C1` (stereo not drawn) [Example 203, N-(2-(3-Benzyl-6-fluoro-2-(3-methylazetidin-1-yl)-2,3-dihydro-1H-inden-5-yloxy)ethyl)-1-methyl-1H-imidazole-4-sulfonamide], the Ki was no more than 100 nM.

With `CC1CN(C2Cc3ccc(OCCNS(=O)(=O)c4cn(C)cn4)cc3C2Cc2ccccc2)C1` (stereo not drawn) [Example 204, N-(2-(3-Benzyl-2-(3-methylazetidin-1-yl)-2,3-dihydro-1H-inden-5-yloxy)ethyl)-1-methyl-1H-imidazole-4-sulfonamide], the Ki is no more than 100 nM.

For the compound `Cn1cnc(S(=O)(=O)NCCOc2ccc3c(c2)C(Cc2ccccc2)C(N2CC(C)(C)C2)C3)c1` (stereo not drawn) [Example 205, N-(2-{[3-Benzyl-2-(3,3-dimethylazetidin-1-yl)-2,3-dihydro-1H-inden-5-yl]oxy}ethyl)-1-methyl-1H-imidazole-4-sulfonamide], the Ki is no more than 100 nM.

As for `CN(CCOc1cc2c(cc1F)CC(N1CC(C)(O)C1)C2Cc1ccccc1)S(=O)(=O)c1cn(C)cn1` (stereo not drawn) [Example 207, N-(2-(3-Benzyl-6-fluoro-2-(3-hydroxy-3-methylazetidin-1-yl)-2,3-dihydro-1H-inden-5-yloxy)ethyl)-N,1-dimethyl-1H-imidazole-4-sulfonamide], the Ki is no more than 1000 nM.
